Results from patent publication US20240174690A1, “ANNULATED 2-AMINO-3-CYANO THIOPHENES AND DERIVATIVES FOR THE TREATMENT OF CANCER” (BOEHRINGER INGELHEIM INTERNATIONAL GMBH, priority 2021, published 2024).

Assays:
KRAS (G12D)::SOS1 = KRAS (G12D)::SOS1 (Homo sapiens (Human), UniProt P01116, G12D); assay: KRAS::SOS1 AlphaScreen binding assay, KRAS G12D
Outline: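 Compounds (up to 100 μM, eleven fivefold dilutions in duplicate) were incubated 30 min with KRAS 1-169 (10 nM, or 7.5 nM for G12C), GST-SOS1 564-1049 (5 nM for G12D/G12C, 10 nM for others) and 10 μM GDP in PBS buffer with BSA and Tween. Donor/acceptor beads were then added for 60 min at room temperature, and IC50 came from a 4-parameter fit of the AlphaScreen signal.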

[1] = tested on: KRAS G12D-dependent Ba/F3 cells; assay: Ba/F3 proliferation assay, KRAS G12D; type: cell-based; details: Mus musculus, BaF3, 72 h, AlamarBlue
Outline: (§1)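 Ba/F3 cells were retrovirally transduced with KRAS G12 mutant vectors, puromycin-selected (1 μg/mL) and grown without IL-3 to make them KRAS-dependent. Compounds were tested in technical duplicates, viability was read by AlamarBlue fluorescence, and values came from curve fitting.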

[2] = tested on: KRAS G12C-dependent Ba/F3 cells; assay: Ba/F3 proliferation assay, KRAS G12C; type: cell-based; details: Mus musculus, BaF3, 72 h, AlamarBlue
Outline: as §1

[3] = tested on: KRAS G12V-dependent Ba/F3 cells; assay: Ba/F3 proliferation assay, KRAS G12V; type: cell-based; details: Mus musculus, BaF3, 72 h, AlamarBlue;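 also: proliferation IC50 in KRAS G12V-dependent Ba/F3 cells read by AlamarBlue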
Outline: as §1

SK-CO-1 cells = assay: SK-CO-1 CTG proliferation assay (120 h) (CRC, G12V); type: cell-based; details: Homo sapiens; SK-CO-1 cells (CRC, G12V), CTG 120 h
Outline: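 SK-CO-1 colorectal cells (KRAS G12V), 500 per well in EMEM + 10% FCS, dosed with compound the day after seeding and grown 120 h at 37 °C. Viability by CellTiter-Glo luminescence as percent of DMSO control; IC50 from four-parameter non-linear regression.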

KRAS (G12D)::SOS1, sequence (P01116 other isoform, or with tags, fused parts or gaps G12D): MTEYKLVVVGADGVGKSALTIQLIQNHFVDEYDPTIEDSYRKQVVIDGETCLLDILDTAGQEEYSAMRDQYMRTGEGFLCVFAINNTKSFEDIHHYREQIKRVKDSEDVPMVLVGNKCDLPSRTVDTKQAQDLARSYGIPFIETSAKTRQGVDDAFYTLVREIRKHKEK

| Compound | IC50 (KRAS (G12D)::SOS1) [nM] | IC50 [1] [nM] | IC50 [2] [nM] | IC50 [3] [nM] | IC50 (SK-CO-1 cells) [nM] |
| --- | --- | --- | --- | --- | --- |
| C[C@H](Oc1cc(-n2cc3ccn(C[C@H]4CCOC4)c(=O)c3n2)nc(-c2noc3c2CCC[C@@]32CCCc3sc(N)c(C#N)c32)n1)[C@@H]1CCCN1C [II-204] | 2 | 62 | 11 | 7 | 14 |
| C[C@H]1CNCCCN1c1cc(-n2ccnc2)nc(-c2noc3c2CCC[C@@]32CCCc3sc(N)c(C#N)c32)n1 [II-142] | 25 | 5860 | 2200 | 1770 | 2190 |
| C[C@H](Oc1cc(-n2ccc(-c3cnccn3)n2)nc(-c2noc3c2CCC[C@@]32CCCc3sc(N)c(C#N)c32)n1)[C@@H]1CCCN1C [II-130] | 2 | 45 | 6 | 6 | 29 |
| C[C@@H]1CN(c2nc(-c3noc4c3CCC[C@@]43CCCc4sc(N)c(C#N)c43)nc(O[C@@H](C)[C@@H]3C[C@@H](F)CN3C)c2F)CC2(CC2)N1 [II-158] | 2 | 24 | 135 | 108 | 374 |
| C[C@H](Oc1nc(-c2noc3c2CCC[C@@]32CCCc3sc(N)c(C#N)c32)nc(N2CCNC3(CC3)C2)c1Cl)[C@@H]1C[C@@H](F)CN1C [II-156] | 1 | 16 | 353 | 271 | 390 |
| C[C@H](Oc1cc(N2CCNC[C@@]23CCOC3)nc(-c2onc3c2CCC[C@@]32CCCc3sc(N)c(C#N)c32)n1)[C@@H]1CCCN1C [I-13] | 1 | 49 | 1540 | 821 | 2160 |
| C[C@H](Oc1nc(-c2noc3c2CCC[C@@]32CCCc3sc(N)c(C#N)c32)nc(N2CCN(C)C3(CC3)C2)c1Cl)[C@@H]1C[C@@H](F)CN1C [II-176] | 2 | 112 | 1310 | 1210 | 2060 |

Other lines, results leading:

| IC50 (KRAS (G12D)::SOS1) [nM] | IC50 [1] [nM] | IC50 [2] [nM] | IC50 [3] [nM] | IC50 (SK-CO-1 cells) [nM] | Compound |
| --- | --- | --- | --- | --- | --- |
| 1 | 41 | 526 | 574 | 980 | C[C@H](Oc1cc(N2CCN[C@@H](C)C2)nc(-c2noc3c2CCC[C@@]32CCCc3sc(N)c(C#N)c32)n1)[C@@H]1CCCN1C [II-162] |
| 1 | 14 | 2 | 2 | 4 | COCCNC(=O)c1ccn(-c2cc(O[C@@H](C)[C@@H]3CCCN3C)nc(-c3noc4c3CCC[C@@]43CCCc4sc(N)c(C#N)c43)n2)n1 [II-195] |
| 3 | 99 | 10 | 6 | 18 | C[C@H](Oc1cc(-n2cc(C(=O)N(C)C)nn2)nc(-c2noc3c2CCC[C@@]32CCCc3sc(N)c(C#N)c32)n1)[C@@H]1CCCN1C [II-132] |
| 1 | 3 | 5 | 2 | 9 | C[C@H](Oc1cc(N2CCOC2=O)nc(-c2noc3c2CCC[C@@]32CCCc3sc(N)c(C#N)c32)n1)[C@@H]1CCCN1C [II-143] |
| 2 | 250 | 910 | 971 | 1020 | C[C@@H]1CN(c2cc(O[C@@H](C)[C@@H]3CCCN3C)nc(-c3noc4c3CCC[C@@]43CCCc4sc(N)c(C#N)c43)n2)CCN1 [II-161] |
| 4 | 1170 | 41 | 28 | 225 | C[C@H](O)Cn1ncc(-c2cc(O[C@@H](C)[C@@H]3CCCN3C)nc(-c3noc4c3CCC[C@@]43CCCc4sc(N)c(C#N)c43)n2)n1 [II-134] |
| 7 | 211 | 32 | 26 | 137 | C[C@H](Oc1cc(-n2cnc(C(=O)N(C)C)c2)nc(-c2noc3c2CCC[C@@]32CCCc3sc(N)c(C#N)c32)n1)[C@@H]1CCCN1C [II-126] |
| 1 | 12 | 192 | 321 | 880 | CO[C@H]1CCN(C)[C@@H]1[C@H](C)Oc1cc(N2CCN(C)C3(CC3)C2)nc(-c2noc3c2CCC[C@@]32CCCc3sc(N)c(C#N)c32)n1 [II-186] |
